US20090222938A1, “Therapeutic Target Molecules For The Development of Novel Medicaments for Degenerative Diseases” (Neuroprofile GMBH, priority 2006, published 2009)

Legend:
Type in all cases: cell-based
[1] = tested on: NPC2-mRNA in NT2-N neurons; test: NPC2 mRNA quantitative real-time RT-PCR after stressor treatment
[2] = tested on: NT2-N neuron cells; test: Live/Dead-Viability/Cytotoxicity Assay, survival of neurons under chronic sublethal oxidative stressor; conditions: stressor 1.0-25 μM, serum-free; more than 3 days after the time point of sampling
Excerpt: The increase of MAC30-mRNA in NT2-N neuron cells (Andrews P. W., Dev. Biol., 103, pp 285-293, 1984; Pleasure S. J., Page C., Lee V. M.-Y., J. Neurosci., 12, pp 1802-1815, 1992) has been detected in microarray analyses using fluorescence-labelled cDNA after treating the cells under serum-free conditions with chronic sublethal concentrations of the oxidative stressor haloperidol (Sigma; catalogue No. H-1512). Appropriate conditions for an optimal survival rate of the cells were obtained by means of the Live/Dead-Viability/Cytotoxicity Assay (Molecular Probes) according to the manual of the manufacturer. […] 2′,7′-dichlorodihydrofluorescein-diacetate (Sigma, catalogue No. D6883) was used for determining total cell quantity of ROS. […] Subsequently, the cells were homogenized by sonication, centrifugated (20 minutes, 4° C., 20.000×g), and the fluorescence of the supernatant was measured. […] The relative increase of ROS was calculated in relation to the control. Further, ROS was determined by means of dihydroethidium (DHE; Sigma catalogue No. D7008). 5 μM DHE was added into an aliquot of the scraped cells, incubated for 1 hour at 37° C., processed analogous to the DCFDA procedure, and the fluorescence of the supernatant was determined. The protein adjusted alteration of mitochondrial ROS was calculated in relation to the untreated control. […]

[3] = tested on: LOC222171-mRNA in NT2-N neurons; test: LOC222171 mRNA quantitative real-time RT-PCR after stressor treatment; conditions: 15 days of treatment
Excerpt: This increase was quantified by means of a quantitative real time RT-PCR analysis (qRTRTPCR) featuring fluorescence labelling by SYBR-Green 1. […] The PCR primer pair LOC222171-For1 (5′-[sequence]-3′) (SEQ ID NO: 120) and LOC222171-Rev2 (5′-[sequence]-3′) (SEQ ID NO: 121) is suitable for the analysis of the LOC222171 mRNA by means of qRTRTPCR.

[4] = tested on: CUEDC1-mRNA in NT2-N neurons; test: CUEDC1 mRNA quantitative real-time RT-PCR after stressor treatment; conditions: 15 days of chronic oxidative stress
Excerpt: This increase was further quantified by means of a quantitative real time RT-PCR analysis (qRTRTPCR) with fluorescence labelling by SYBR-Green 1. […] The PCR primer pair CUEDC1-For1 (5′-[sequence]-3′) (SEQ ID NO: 122) and CUEDC1-Rev2 (5′-[sequence]-3′) (SEQ ID NO: 123) is suitable for the analysis of the CUEDC1 mRNA by means of qRTRTPCR.

[5] = tested on: MAC30-mRNA in NT2-N neuron cells; test: MAC30 mRNA quantitative real-time RT-PCR (SYBR Green 1) after stressor treatment
Excerpt: The MAC30-mRNA increase may be quantified by a quantitative real-time RT-PCR analysis (qRTRTPCR) with fluorescence labelling by SYBR Green 1.

[6] = tested on: IDI1 protein in NT2-N neurons; test: IDI1 protein quantity by two dimensional polyacrylamid gel electrophoresis and mass spectrometric identification; conditions: 15 day treatment
Excerpt: The increase of the IDI1 protein (IDI1=Isopentenyl-diphosphate delta isomerase 1; =Isopentenyl diphosphate dimethylallyl diphosphate isomerase 1) was detected with a two dimensional polyacrylamid gel electrophoresis after treatment of NT2-N neurons with haloperidol (as described in example 1) and subsequent mass spectrometric identification of the protein spot.

[7] = tested on: BRI3-mRNA in NT2-N neurons; test: BRI3 mRNA quantitative real-time RT-PCR after stressor treatment
Excerpt: This increase may be quantified by means of a quantitative real-time RT-PCR analysis (qRTRTPCR) with fluorescence labelling by SYBR Green 1.

[8] = tested on: G1P3-mRNA in NT2-N neurons; test: G1P3 mRNA quantitative real-time RT-PCR after stressor treatment
Excerpt: The increase was quantified by means of a quantitative real-time RT-PCR analysis (qRTRTPCR) with fluorescence labeling by SYBR Green 1. […] The PCR primer pair G1P3-For1 (5′-[sequence]-3′) (SEQ ID NO: 118) and GIP3-Rev2 (5′-[sequence]-3′) (SEQ ID NO: 119) is suitable for the analysis of the G1P3 mRNA by means of qRTRTPCR.

[9] = tested on: SCD-mRNA in NT2-N neurons; test: SCD mRNA quantitative real-time RT-PCR after stressor treatment; conditions: 15 day treatment
[10] = longer treatment, 'may achieve up to ... or more'

SMILES: O=C(CCCN1CCC(O)(c2ccc(Cl)cc2)CC1)c1ccc(F)cc1 [haloperidol]
- NPC2-mRNA increase ([1]; 15 days of chronic sublethal oxidative stress): ≥ 50%
- NPC2-mRNA increase in comparison to untreated neurons ([1]; after 3 days): significant increase
- neurons alive [2]: More than 75%
- LOC222171-mRNA increase [3]: ≥ 50%
- CUEDC1-mRNA increase [4]: more than 30%
- MAC30-mRNA increase ([5]; 8-day treatment, 1.0-25 μM): at least 50%
- MAC30-mRNA increase [5, 10]: ≥ 200%
- IDI1-protein quantity increase [6]: ≥ 30%
- BRI3-mRNA increase ([7]; 8-day treatment): ≥ 40%
- BRI3-mRNA increase ([7]; 3 days after treatment): increase can be detected
- BRI3-mRNA increase [7, 10]: ≥ 200%
- G1P3-mRNA increase ([8]; 8-day treatment): ≥ 50%
- G1P3-mRNA increase ([8]; after 3 days): marked increase
- G1P3-mRNA increase [8, 10]: ≥ 400%
- SCD-mRNA increase in comparison to untreated neurons [9]: ≥ 50%
